The source of these data is the supplement of paper PMC11208160.
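Further: IS621 bridge recombinase in Escherichia coli cells against a fixed T5 target plasmid.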

A short description of the series: recombinant UMI read abundance after kanamycin selection (control-corrected) (log10(CPM+1)); higher = more efficient recombination; extreme values may be limits of the assay; sequences stand for … in AGTGCAGAGAAAATCGGCCAGTTTTCTCTGCCTGCAGTCCGCATGCCGTGGGACCCCTTGGGTTCTAACCTGTTGCCTAGATTTATGCAGCGGACTGCCTTTCTCCCAAAGTGATAAACCGG…AGGTTGGTTTCACT; site = the 11-nt donor. The method in brief: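 Sequencing read counts were converted to CPM, averaged over two replicates and scaled by control-derived factors. Results are given as log10(CPM+1). The reads covered the donor–target junction of recombinant UMIs from a pooled Escherichia coli screen of donor and donor-binding-loop pairs for the IS621 bridge recombinase.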
As for “CGGTCGACATGGACCGGTTTTCCCGGTAATCCGTATTTGTT (site CGGTCGACTAA)”, the “recombinant UMI read abundance (log10)” value was 0.226.

Consider “CGGTCGACATGGACCGGTTTTCCCGGTAATCCGTATTTGTT (site CGTTCGACTAA)”, for which the “recombinant UMI read abundance (log10)” value came out at 0.00264.

On to “CGGTGGACATGGACCGGTTTTCCCGGTAATCCGTATTTGTC (site CGGTGGACTGA)”, for which the “recombinant UMI read abundance (log10)” value was found to be 2.27.

Turning to “CGGTTCCCATGGACCGGTTTTCCCGGTAATCCGTATTTGTG (site AGGTTCCCTCA)”, the “recombinant UMI read abundance (log10)” value turned out to be 0.0113.

For “CGGTTCCCATGGACCGGTTTTCCCGGTAATCCGTATTTGTG (site CGGTTCCCTCA)”, the “recombinant UMI read abundance (log10)” value is 0.0387.

“CGGTTCCCATGGACCGGTTTTCCCGGTAATCCGTATTTGTG (site GGGTTCCCTCA)”: the “recombinant UMI read abundance (log10)” value amounted to 0.0355.

For the sequence “CGGTTCCCATGGACCGGTTTTCCCGGTAATCCGTATTTGTG (site TGGTTCCCTCA)”, the “recombinant UMI read abundance (log10)” value was found to be 0.0119.

“CGGTTGGCATGGACCGGTTTTCCCGGTAATCCGTATTTGCT (site CGATTGGCTAG)”: the “recombinant UMI read abundance (log10)” value stood at 0.3.

Take “CGGTTGGCATGGACCGGTTTTCCCGGTAATCCGTATTTGCT (site CGCTTGGCTAG)”: the “recombinant UMI read abundance (log10)” value came out at 0.00834.

In the case of “CGGTTGGCATGGACCGGTTTTCCCGGTAATCCGTATTTGCT (site CGGTTGGCTAG)”, the “recombinant UMI read abundance (log10)” value came out at 1.08.

Turning to “CGGTTGGCATGGACCGGTTTTCCCGGTAATCCGTATTTGCT (site CGTTTGGCTAG)”, the “recombinant UMI read abundance (log10)” value stood at 0.

As to “CGTAAGCCATGGACCGGTTTTCCCGGTAATCCGTATTTGTT (site CGGAATCCTAA)”, the “recombinant UMI read abundance (log10)” value came out at 0.

With “CGTAAGCCATGGACCGGTTTTCCCGGTAATCCGTATTTGTT (site CGTAAGCCTAA)”, the “recombinant UMI read abundance (log10)” value came to 0.666.

For “CGTAATCCATGGACCGGTTTTCCCGGTAATCCGTATTTGTT (site CGAAATCCTAA)”, the “recombinant UMI read abundance (log10)” value was found to be 0.00285.

For the sequence “CGTAATCCATGGACCGGTTTTCCCGGTAATCCGTATTTGTT (site CGCAATCCTAA)”, the “recombinant UMI read abundance (log10)” value came out at 0.

In the case of “CGTAATCCATGGACCGGTTTTCCCGGTAATCCGTATTTGTT (site CGGAATCCTAA)”, the “recombinant UMI read abundance (log10)” value was determined as 0.00347.

As for “CGTAATCCATGGACCGGTTTTCCCGGTAATCCGTATTTGTT (site CGTAATCCTAA)”, the “recombinant UMI read abundance (log10)” value was 0.

For “CGTACATCATGGACCGGTTTTCCCGGTAATCCGTATTTGCT (site CGAACATCTAG)”, the “recombinant UMI read abundance (log10)” value was determined as 0.623.

On to “CGTACATCATGGACCGGTTTTCCCGGTAATCCGTATTTGCT (site CGATCATCTAG)”, for which the “recombinant UMI read abundance (log10)” value is 0.

Take “CGTACATCATGGACCGGTTTTCCCGGTAATCCGTATTTGCT (site CGCACATCTAG)”: the “recombinant UMI read abundance (log10)” value worked out at 0.

“CGTACATCATGGACCGGTTTTCCCGGTAATCCGTATTTGCT (site CGGACATCTAG)”: the “recombinant UMI read abundance (log10)” value stood at 0.

Take “CGTACATCATGGACCGGTTTTCCCGGTAATCCGTATTTGCT (site CGTACATCTAG)”: the “recombinant UMI read abundance (log10)” value was 1.39.

“CGTACCACATGGACCGGTTTTCCCGGTAATCCGTATTTGAG (site CGTACCACTCT)”: the “recombinant UMI read abundance (log10)” value was 1.06.

In the case of “CGTAGAACATGGACCGGTTTTCCCGGTAATCCGTATTTGCC (site CGTAGAACTGG)”, the “recombinant UMI read abundance (log10)” value was 2.75.

For the sequence “CGTATGGCATGGACCGGTTTTCCCGGTAATCCGTATTTGCT (site CGTATGGCTAG)”, the “recombinant UMI read abundance (log10)” value came to 0.895.

Take “CGTATGGCATGGACCGGTTTTCCCGGTAATCCGTATTTGCT (site CGTCTGGCTAG)”: the “recombinant UMI read abundance (log10)” value is 0.

Turning to “CGTATGGCATGGACCGGTTTTCCCGGTAATCCGTATTTGCT (site CGTGTGGCTAG)”, the “recombinant UMI read abundance (log10)” value was found to be 0.0109.

Take “CGTATGGCATGGACCGGTTTTCCCGGTAATCCGTATTTGCT (site CGTTTGGCTAG)”: the “recombinant UMI read abundance (log10)” value came to 0.

As for “CGTCTATCATGGACCGGTTTTCCCGGTAATCCGTATTTGCC (site CGTCTATCTGG)”, the “recombinant UMI read abundance (log10)” value was determined as 2.64.
